The target in one data set is T1, rat NaP2b (SLC34A2) (Rattus norvegicus, UniProt Q9JJ09).
T1 construct: host or cells: HEK293
T1 sequence (Q9JJ09 1-695): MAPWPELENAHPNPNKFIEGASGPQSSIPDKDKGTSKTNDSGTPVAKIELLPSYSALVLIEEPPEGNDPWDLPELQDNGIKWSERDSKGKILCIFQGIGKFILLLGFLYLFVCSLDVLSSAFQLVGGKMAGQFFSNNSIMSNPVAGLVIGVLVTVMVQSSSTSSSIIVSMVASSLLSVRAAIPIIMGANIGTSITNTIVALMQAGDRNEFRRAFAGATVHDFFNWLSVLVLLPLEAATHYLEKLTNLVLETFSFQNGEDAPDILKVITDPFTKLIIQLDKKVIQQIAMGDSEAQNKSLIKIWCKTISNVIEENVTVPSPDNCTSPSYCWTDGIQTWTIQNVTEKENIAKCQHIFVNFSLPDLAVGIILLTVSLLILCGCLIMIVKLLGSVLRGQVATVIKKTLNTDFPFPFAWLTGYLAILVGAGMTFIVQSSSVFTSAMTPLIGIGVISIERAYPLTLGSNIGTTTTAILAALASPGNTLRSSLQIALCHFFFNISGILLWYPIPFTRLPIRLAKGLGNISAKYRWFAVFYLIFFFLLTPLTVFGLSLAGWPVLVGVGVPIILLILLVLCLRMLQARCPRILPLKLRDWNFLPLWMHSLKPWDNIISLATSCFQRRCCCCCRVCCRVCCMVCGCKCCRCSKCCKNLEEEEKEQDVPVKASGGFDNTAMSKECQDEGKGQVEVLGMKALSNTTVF
The experiment in a line: Inhibition of NaP2b-mediated Pi (33P) uptake in transfected HEK293 cells, rat NaP2b. The data set is classed as cell-based. Particulars: HEK293 cells transfected with rat NaP2b, 100 uM phosphate, 0.1 nM to 30 uM, read-out: pIC50 range for rat Nap2b (converted). In short, it runs like this: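 HEK293 cells transiently transfected with rat NaP2b; 33P-phosphate uptake measured in sodium or choline buffer (100 uM KH2PO4, PiT-silencing agent, pH 7.4) with compound at twelve concentrations, 0.1 nM–30 uM, in duplicate. Lysed cells counted by scintillation; pIC50 derived from concentration-response.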

The next data set relates to Sprague-Dawley rats. The experiment in a line: In vivo bolus phosphorus challenge (serum phosphate elevation). To be noted: rat; oral; drug dose 30; phosphate bolus 15 min after compound; serum 30 min post bolus. On the procedure: By pretreating animals with a low phosphorus diet followed by the subsequent dosing of a phosphorus bolus, serum phosphorus levels were monitored after 30 minutes as a surrogate for intestinal phosphorus absorption. […] The in vivo bolus phosphorus challenge model used here mimics this model in rats.
Male, 7-week-old Sprague-Dawley rats (Charles-River laboratories international, Hollister, Calif.) were allowed to acclimatize for a minimum of 3 days before switching to a synthetic low-phosphorus diet (TD.85010, Harlan Teklad, Madison, Wis.) which contains 0.1% phosphorus and 0.6% calcium. At day 5, testing compounds or vehicle alone (as indicated) were orally administered at the indicated dose in a volume of 5 ml/kg, followed by a bolus gavage of monobasic sodium phosphate (1 mmol in 1 ml) 15 min after compound dosing. Serum was collected via retroorbital bleeding 30 min post phosphate bolus and phosphate levels were determined utilizing an ACE ALERA blood chemistry analyzer (Alfa Wassermann Diagnostic Technologies, West Caldwell, N.J.).
The extent of inhibition by test compounds on the elevation of serum phosphate levels in response to the bolus of phosphorus is shown in Table 12 (data are expressed as % Inhibition, with 6-10 animals per data point). The differences between groups were evaluated by one-way analysis of variance with Dunnett's post hoc tests.

A short description of data set [1]: Stability of compounds in simulated gastric fluid (SGF). The data set is classed as in vitro ADME. To be noted: simulated gastric fluid (USP, 3 mg/mL pepsin), 1-20 μM, incubation time 6 hr, relative to t=0. On the procedure:
(§1) Test compounds were incubated at 1-20 μM in simulated gastric fluid (SGF; standard USP solution with 3 mg/mL pepsin) or simulated intestinal fluid (SIF; standard USP solution with 3 mg/mL pancreatin) for 3 hr or 6 hr. HPLC-UV or HPLC-MS were used to determine test compound levels using peak area %. Results (Table 14) were reported as the percentage of test compound remaining after incubation in a given condition relative to test compound present at t=0 in the same condition.

Data set [2] can be described thus: Stability of compounds in simulated intestinal fluid (SIF). In kind it is in vitro ADME. To be noted: simulated intestinal fluid (USP, 3 mg/mL pancreatin), 1-20 μM, incubation time 6 hr, relative to t=0. On the procedure: as §1
The nature of data set [3]: Fecal recovery of orally administered compounds. In kind it is in vivo. To be noted: rat; oral gavage; feces collected until 48 hr after dosing. The source says: In this respect, it is understood that a recovered compound can include the sum of the parent compound and its metabolites derived from the parent compound, e.g., by means of hydrolysis, conjugation, reduction, oxidation, N-alkylation, glucuronidation, acetylation, methylation, sulfation, phosphorylation, or any other modification that adds atoms to or removes atoms from the parent compound, wherein the metabolites are generated via the action of any enzyme or exposure to any physiological environment including, pH, temperature, pressure, or interactions with foodstuffs as they exist in the digestive milieu. Measurement of fecal recovery of compound and metabolites can be carried out using standard methodology. For example, compound can be administered orally at a suitable dose (e.g., 10 mg/kg) and feces are then collected at predetermined times after dosing (e.g., 24 hours, 48 hours, 72 hours). Parent compound and metabolites can be extracted with organic solvent and analyzed quantitatively using mass spectrometry. A mass balance analysis of the parent compound and metabolites (including, parent=M, metabolite 1 [M+16], and metabolite 2 [M+32]) can be used to determine the percent recovery in the feces.
Quantitative determination of test compound level in feces after oral gavage was performed using the same set of animals used to determine test compound concentration in plasma (Example 352). The animals were kept in metabolic cages and feces were collected from the time of dosing until 48 hr after dosing. Upon collection, feces were dried by lyophilization and ground to a visually homogenous powder. Duplicate samples of ground feces from each individual animal were weighed out and extracted using organic solvent. Extracted samples were then diluted into mobile phase and test compound levels were quantitatively determined by LC-MS/MS analysis as described in Example 352 except that the standard curve was prepared in a feces matrix. Extraction conditions were not optimized for individual compounds, and thus may represent a minimal level of recovery.

For data set [4], the system named is 5/6 nephrectomy (5/6Nx) rat model of CKD. The experiment in a line: In vivo evaluation in CKD rats (5/6 nephrectomy, 0.9% P diet, calcitriol). To be noted: drug in chow.
Protocol: To assess the ability of selected example compounds to impact the progression of chronic kidney disease (CKD), 5/6 nephrectomy (5/6Nx) rat model of CKD was used. […] 5/6 Nx rats were obtained from Charles River Labs (CRL, Hollister, Calif.). Upon arrival, the surgeries and extent of kidney damage in the animals were assessed by measuring serum creatinine, P, Ca, and BUN. Based on this analysis, rats with inconsistent kidney function were removed from the study and the remainder of the cohort was divided in to evenly stratified test groups. The remaining animals were then placed on the same synthetic diet used in the drug-in-chow studies (Example 350), except the P levels were adjusted to 0.9% P. Drugs are blended into this chow to achieve the required dosing rate. At this time, rats were also started on an activated Vitamin D regimen in which they were injected intraperitoneally with calcitriol at 80 ng/kg three times a week. Once a week, serum was collected via retro orbital bleeding for analysis of serum P and creatinine utilizing an ACE ALERA blood chemistry analyzer. […] Unless otherwise indicated, the data shown is from the serum collected at 2 weeks after initiation of the treatment regimen. In addition, for study #3, during the third week of the study, the animals were placed in metabolic cages for two days, and urine collected for the final 24 hours.
A further data set concerns the target T2, human NaP2b (SLC34A2) (Homo sapiens, UniProt O95436).
T2 construct: host or cells: HEK293
T2 sequence (O95436 1-690): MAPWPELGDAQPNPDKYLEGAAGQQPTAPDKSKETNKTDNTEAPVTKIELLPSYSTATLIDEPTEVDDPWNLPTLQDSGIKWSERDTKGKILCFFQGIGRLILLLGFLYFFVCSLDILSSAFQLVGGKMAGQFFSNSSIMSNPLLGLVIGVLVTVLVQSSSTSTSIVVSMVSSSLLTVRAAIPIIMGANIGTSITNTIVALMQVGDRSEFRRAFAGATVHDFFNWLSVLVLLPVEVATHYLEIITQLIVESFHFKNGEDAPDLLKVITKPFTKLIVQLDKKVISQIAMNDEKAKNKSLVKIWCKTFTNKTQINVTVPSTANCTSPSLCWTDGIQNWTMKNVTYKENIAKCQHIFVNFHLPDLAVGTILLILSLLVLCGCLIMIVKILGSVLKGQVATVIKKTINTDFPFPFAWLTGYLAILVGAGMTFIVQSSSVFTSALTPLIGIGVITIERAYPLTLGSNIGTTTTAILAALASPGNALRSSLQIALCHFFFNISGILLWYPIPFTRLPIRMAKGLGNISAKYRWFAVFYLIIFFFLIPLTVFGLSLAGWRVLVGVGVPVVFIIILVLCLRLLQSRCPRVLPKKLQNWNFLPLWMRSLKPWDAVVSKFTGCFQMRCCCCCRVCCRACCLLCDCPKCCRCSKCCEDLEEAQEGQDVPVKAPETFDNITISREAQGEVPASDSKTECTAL
Nature of the data set: Inhibition of NaP2b-mediated Pi (33P) uptake in transfected HEK293 cells, human NaP2b. The data set is classed as cell-based. Particulars: HEK293 cells transfected with human NaP2b, 100 uM phosphate, 0.1 nM to 30 uM, read-out: pIC50 range for human NaP2b (converted). On the procedure:
HEK293 cells were obtained from the American Type Culture collection and propagated per their instructions. Expression clones for rat and human NaP2b (SLC34A2) were obtained from Open Biosystems (Catalog numbers MRN1768-9510282, and MHS1010-99823026, respectively). The sequence of the human protein was mutated to insert a threonine after residue 37, and to introduce a N39D mutation.
The rate of phosphate (Pi) uptake into HEK293 cells was measured using a modification of the method described by Mohrmann et al. (Mohrmann, I., Mohrmann, M., Biber, J., and Murer, H. (1986) Am. J. Phys. 250(3 Pt 1):G323-30.) Transfected HEK293 cells were treated with a pharmacological agent to minimize endogenous PiT-mediated phosphate transport activity, such that the only remaining sodium-dependent phosphate transport activity is that which was bestowed by introduction of the NaP2b genes.
Cells were seeded into 96-well plates at 25,000 cells/well and cultured overnight. Lipofectamine 2000 (Invitrogen) was used to introduce the NaP2b cDNA, and the cells were allowed to approach confluence during a second overnight incubation. […] Cells were then overlayed with either choline uptake buffer or sodium uptake buffer (14 mM Tris, 137 mM sodium chloride, 5.4 mM KCl, 2.8 mM CaCl2, 1.2 mM MgSO4, 100 uM KH2PO4, PiT-silencing agent, 1 mg/mL Bovine Serum Albumin, pH 7.4) containing 6-9 uCi/mL ^33P orthophosphoric acid (Perkin Elmer) and test compound. Each compound was tested at twelve concentrations ranging from 0.1 nM to 30 uM. Assays were run in duplicate.
After incubation for 3-30 minutes at room temperature, assay mixtures were removed, and the cells were washed twice with ice cold stop solution (137 mM sodium chloride, 14 mM Tris, pH 7.4). Cells were lysed by addition of 20 μL 0.1% Tween 80 followed by 100 μL scintillation fluid, and counted using a TopCount (Perkin Elmer).
pIC50 (the negative log of the […]) values of the test compounds were calculated using GraphPad Prism.

The source of these data is patent publication US9301951B2 (Ardelyx, Inc., priority 2010, dated 2016).

Marks after values point to notes of the source that are not given here.

As for `O=C(O)CCSCc1cccc(C(=O)Nc2ccc(N3CCOCC3)cc2-c2cc(C(=O)NCc3cccc(C(F)(F)F)c3)ccn2)c1` [Example 14, 3-((3-((4-Morpholino-2-(4-((3-(trifluoromethyl)benzyl)carbamoyl)pyridin-2-yl)phenyl)carbamoyl)benzyl)thio)propanoic acid], the IC50 on rat NaP2b (SLC34A2) was 10 to 31.6 µM. The “% Inhibition of Serum P elevation” value in the data set on Sprague-Dawley rats is given as 10-20%.

`O=C(O)CCSCc1cccc(C(=O)Nc2ccc(Cl)cc2-c2cc(C(=O)NCc3cccc(C(F)(F)F)c3)ccn2)c1` [Example 21, 3-((3-((4-Chloro-2-(4-((3-(trifluoromethyl)benzyl)carbamoyl)pyridin-2-yl)phenyl)carbamoyl)benzyl)thio)propanoic acid]: the IC50 at rat NaP2b (SLC34A2) was 1 to 7.94 µM. Also, the “% Inhibition of Serum P elevation” value in the data set with Sprague-Dawley rats was 10-20%.

Turning to `CN(CCN1CCOCC1)C(=O)c1cccc(C(=O)Nc2ccc(OC3CCC3)cc2-c2cc(C(=O)NCc3cccc(C(F)(F)F)c3)ccn2)c1` [Example 26, N1-(4-Cyclobutoxy-2-(4-((3-(trifluoromethyl)benzyl)carbamoyl)pyridin-2-yl)phenyl)-N3-methyl-N3-(2-morpholinoethyl)isophthalamide], the IC50 at rat NaP2b (SLC34A2) is 1 to 7.94 µM. The “% remaining, SGF” value in data set [1] was over 80%. Besides, the “% remaining, SIF” value in data set [2] was 60-80%. Besides, the “% recovered in feces” value in data set [3] is recorded as under 20%.

Consider `CCN(CC)c1ccc(NC(=O)c2cccc(CSCCOCCOCCOCCOCCOCCOCCOCCOCCC(=O)O)c2)c(-c2cc(C(=O)NCc3cccc(C(F)(F)F)c3)ccn2)c1` [Example 166, 1-(3-(4-(diethylamino)-2-(4-(3-(trifluoromethyl)benzylcarbamoyl)pyridin-2-yl)phenylcarbamoyl)phenyl)-5,8,11,14,17,20,23,26-octaoxa-2-thianonacosan-29-oic acid], for which, in data set [4] (study 2, 2 weeks), the “Ser CRE” value worked out at 1.2 mg/dL and the “Ser P” value is listed as 11 mg/dL. The “FGF23” value in data set [4] (study 2, 2 weeks, serum) amounted to 100000 pg/mL. Moreover, in data set [4] (study 3, 3 weeks), the “Ser CRE, mg/dL” value is 1.0^§ mg/dL and the “Ser P, mg/dL” value is listed as 10^§ mg/dL. Moreover, the “Avg % weight gain” value in data set [4] (study 3, 4 weeks) is 35^§§ %. In addition, the “FGF23, pg/mL” value in data set [4] (study 3, 4 weeks, serum) is given as 1.2 × 10^5§§ pg/mL.

Consider `CCN(CC)c1ccc(NC(=O)c2cccc(COCCOCCOCCOCCOCCOCCOC(=O)NCCOCCOCCOCCOCCOCCOCCOC)c2)c(-c2cc(C(=O)NCc3cccc(C(F)(F)F)c3)ccn2)c1` [Example 174, 1-(3-(4-(diethylamino)-2-(4-(3-(trifluoromethyl)benzylcarbamoyl)pyridin-2-yl)phenylcarbamoyl)phenyl)-2,5,8,11,14,17-hexaoxanonadecan-19-yl 2,5,8,11,14,17,20-heptaoxadocosan-22-ylcarbamate], for which the IC50 at rat NaP2b (SLC34A2) was 1 to 7.94 µM; on human NaP2b (SLC34A2), under 1 µM. For the same compound, the “% remaining, SGF” value in data set [1] is recorded as over 80%. Further, in data set [2], the “% remaining, SIF” value was over 80%.

For `CCN(CC)c1ccc(NC(=O)c2cccc(CCCOCCOCCOCCOCCOCCOCCOCCOCCOC)c2)c(-c2cc(C(=O)N[C@H]3CCCc4ccccc43)ccn2)c1` [Example 261, (S)-2-(2-(3-(2,5,8,11,14,17,20,23,26-nonaoxanonacosan-29-yl)benzamido)-5-(diethylamino)phenyl)-N-(1,2,3,4-tetrahydronaphthalen-1-yl)isonicotinamide], in data set [4] (study 1, 2 weeks), the “Ser CRE” value stood at 1.0 mg/dL and the “Ser P” value turned out to be 9.7 mg/dL. Also, the “FGF23, pg/mL” value in data set [4] (study 1, 2 weeks, serum) was >15,000 pg/mL.
